{"source": "patent US20250361526A1", "about": "“[…] CYTOMEGALOVIRUS-DERIVED TOOL VIRUS, METHOD OF PRODUCING THE SAME AND APPLICATIONS THEREOF” (WUHAN INSTITUTE OF VIROLOGY, CHINESE ACADEMY OF SCIENCES, priority 2022, published 2025)", "system": "MCMV", "assay": "In vivo challenge of newborn ICR mice with K181-Nluc/Green, live and organ imaging", "description": "To verify whether recombinant virus K181-Nluc/Green can be applied to evaluate potential drugs, neutralizing antibodies, vaccines, etc. against CMV in vivo. The inventors of the present invention carried out in vivo challenge test with ICR mice in the Animal Biosafety Laboratory (ABSL-2). […] Twelve newborn ICR mice were divided into three groups: control group (PBS), placebo group (DMSO) and ganciclovir (GCV) treatment group. By intracerebroventricular injection (I.C.), 1 μl (4×10^5 PFU) K181-Nluc/Green virus solution was injected into the lateral ventricles of newborn mice (P0) to establish the brain infection model of MCMV virus. After 1 day of challenge, 50 mg/kg GCV was given to mice every day until the 7th day after infection, and the Nanoluc substrate (Cat. #N1120, Promega, USA) was intraperitoneally injected on the 1st, 3rd, 5th, 7th, 9th, 11th and 14th days after infection.\nIn addition, seven days after the mice were infected, one mouse was randomly selected from the placebo (DMSO) group and the GCV treatment group, and Nanoluc substrate was injected intraperitoneally. […] The organs and tissues of mice were taken, and the content of MCMV virus in organs and tissues of mice in different groups was evaluated by fluorescence activity."}
{"smiles": "Nc1nc(O)c2ncn(COC(CO)CO)c2n1", "note": "[GCV, ganciclovir]", "values": [{"measurement": "Nluc or GFP signals in different organs of mice", "setting": "I.C. 4×10^5 PFU K181-Nluc/Green, 50 mg/kg GCV every day, 7 days after infection (FIGS. 14 and 15)", "value": "no detection of apparent Nluc or GFP signals"}, {"measurement": "MCMV replication and spreading in vivo", "setting": "I.C. K181-Nluc/Green, 50 mg/kg GCV every day until the 7th day", "value": "effectively reduce the MCMV replication and spreading in vivo"}]}
